Patent US20150196500A1, “Treatment of Mitochondria-Related Diseases and Improvement of Age-Related Metabolic Deficits” (PHILERA NEW ZEALAND LIMITED, priority 2005, published 2015)
Entries after “also recorded” stand apart in the source; their conditions may differ. Read-outs that look alike come from different tables or passages of the source.

Tests used:
[1] = test system: mitochondria isolated from hearts of obese ZDF rats and lean littermates; format: cell-based, rat
[2] = test system: cytochrome c release from mitochondria isolated from lean (non-diabetic) ZDF rats; test: Cytochrome c release from isolated mitochondria, Western blot; format: cell-based, rat; details: for cytochrome c release into supernatant: 5 mM alone, 30 min incubation
[3] = test system: citrate synthase in mitochondria isolated from lean (non-diabetic) ZDF rats; test: Residual citrate synthase activity in mitochondrial pellets (marker of inner membrane integrity); format: cell-based, rat
Protocol: An enzyme assay was then used to evaluate the mitochondrial pellets to determine the contents of the matrix protein citrate synthase in order to evaluate the integrity of the mitochondria after the respective incubations. Citrate synthase activity was determined according to the methods decscribed in Newsholme and Crabtree, J. Exp. Zoo. 239(2): 159-67 (1986). In brief, frozen mitochondrial pellets were resuspended in a reaction mixture containing 50 mM Tris-HCl (pH8.0), 0.1 mM acetyl coenzyme A and 0.2 mM 5,5′-dithiobis-(2-nitrobenzoic acid) (DTNB). Reactants were incubated for five minutes prior to measurement and the assay started by the addition of 5 mM oxaloacetate. Absorbance of DTNB was then followed at 412 nm and units were calculated relative to soluble protein using the biccichonic acid method (BCA, Pierce) with bovine serum albumin as standard.

[4] = test system: electron transport chain complexes I to V of left ventricle mitochondria; details: rat, in vivo
Protocol: Male Wistar rats (starting body weight from about 200 to about 250 g) were maintained on Teklad TB 2108 (Harlan UK) rat chow and tap water ab libitum. At eight weeks the rats were randomized into two groups: control and diabetic (STZ). Rats were made diabetic by injection with 60 mg/kg STZ and the control rats were given a corresponding amount of 0.9% sodium chloride.
The control groups received Milli-Q water ab libitum during the corresponding period. At the end of the eleven week treatment period, rats were anaesthetized with isoflurane, the abdominal cavity was opened and a catheter inserted into the vena cava. Approximately 1 mL of blood was removed for future analysis and 10000 U/Kg heparin infused. […]
Fiber respiration was then measured in a respirometer at 30° C. at high resolution using Clark-type electrodes and integrated software that was used for data acquisition and analysis (DatLab 4, Oroboros, Oxygraph; Innsbruck, Austria). […] Respiratory rates (oxygen fluxes) were expressed as pmol O2. […]
Respiratory flux rates through complex I (GM2 and GM3), complexes I and II (GMS3) and II (S3) were determined to measure the intactness of the individual complexes (GM3 and S3), and to estimate maximal flux rates through the electron transport chain.

[5] = in the presence of 5 mM spermine

NCCCCNCCCN [spermidine]
change in mitochondrial volume ([1]; 0-5 mM, no CaCl2, 30 minutes, diabetic or control mitochondria): no detectable change in mitochondrial volume
effect on swelling at concentrations above 0.625 mM ([1]; 150 μM CaCl2, mitochondria from obese and lean rats): continued to have a protective effect; also recorded: continue to protect mitochondria from swelling
cytochrome c release into supernatant [2]: caused cytochrome c release at 5 mM, albeit less than in the case of spermine
cytochrome c release on co-incubation with 5 mM spermine ([2]; 5 mM spermine plus test polyamine): reduced, though to a lesser degree; also recorded: diminished cytochrome c release
concentration dependence of diminished cytochrome c release ([2]; […] vs 5 mM, with 5 mM spermine): less potent than when 5 mM was used
residual citrate synthase activity ([3]; 5 mM alone, after 30 min): increased amounts of residual citrate synthase activity compared to control samples
citrate synthase activity in spermine treated mitochondria [3, 5]: improved citrate synthase activity, although not as effectively; also recorded: capable of improving residual citrate synthase activity
relative potency in improving residual citrate synthase activity [3, 5]: markedly less potent than triethylenetetramine dihydrochloride

NCCCNCCCCNCCCN [spermine]
change in mitochondrial volume [1]: led to swelling of mitochondria
effect on swelling at concentrations above 0.625 mM [1]: induced swelling; also recorded: appears to induce swelling
relative inhibition of Ca2+ induced swelling among the three polyamines [1]: greatest inhibition of swelling
cytochrome c release into supernatant [2]: release of large amounts of cytochrome c
incubation time to maximum release of cytochrome c ([2]; data not shown): 30 min
residual citrate synthase activity ([3]; 5 mM alone): rapid loss of citrate synthase activity
residual citrate synthase activity ([3]; lower concentrations than 5 mM): less severe impact on the residual citrate synthase activity

NCCNCCNCCN.O=C(O)CCC(=O)O.O=C(O)CCC(=O)O [triethylenetetramine disuccinate]
cytochrome C oxidase flux (TMPD plus ascorbate) [4]: significant improvement in cytochrome C oxidase
respiration flux rates of control treated mitochondria [4]: No significant effect
